Measured values as given in paper PMC6683399, “Identification of a novel S6K1 inhibitor, rosmarinic acid methyl ester, for treating cisplatin-resistant cervical cancer” (BMC Cancer, 2019).

Target: T1, S6K1 (p70 S6K1, ribosomal protein S6 kinase 1) (Homo sapiens, UniProt P23443)
T1 construct: gene RPS6KB1; recombinant active S6K1 (R&D systems 896-KS)
Assay: in vitro kinase assay with recombinant S6K1 and GST-S6 (also H2B) substrate, […] ATP, immunoblot readout
Assay type: biochemical

T1 sequence (P23443 whole entry): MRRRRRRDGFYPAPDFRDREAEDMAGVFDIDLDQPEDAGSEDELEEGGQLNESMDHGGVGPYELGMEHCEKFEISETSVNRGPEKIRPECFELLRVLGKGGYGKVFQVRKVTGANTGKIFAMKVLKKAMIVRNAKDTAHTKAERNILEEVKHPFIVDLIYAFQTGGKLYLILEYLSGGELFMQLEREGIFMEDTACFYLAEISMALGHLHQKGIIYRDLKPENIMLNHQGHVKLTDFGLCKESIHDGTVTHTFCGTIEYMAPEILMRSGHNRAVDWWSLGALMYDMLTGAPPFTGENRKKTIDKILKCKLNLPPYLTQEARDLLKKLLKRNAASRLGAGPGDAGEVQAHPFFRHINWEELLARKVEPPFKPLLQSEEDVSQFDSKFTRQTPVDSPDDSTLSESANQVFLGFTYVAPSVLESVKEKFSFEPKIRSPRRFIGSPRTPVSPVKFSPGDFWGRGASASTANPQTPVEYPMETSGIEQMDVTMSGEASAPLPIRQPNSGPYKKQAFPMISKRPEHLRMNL

## COC(=O)[C@@H](Cc1ccc(O)c(O)c1)OC(=O)/C=C/c1ccc(O)c(O)c1 [RAME, rosmarinic acid methyl ester]
  in vitro kinase assay with recombinant S6K1 and GST-S6 (also H2B) substrate, 100: RAME inhibited the phosphorylation of S6 in dose-dependent manner (Fig. 2b)
